Assay results: the supplement of paper PMC8960247
Where a name gives a salt, the structure may show the parent alone. ± gives the standard error.

Columns and labels:
621-103 (TSC2-rescued) = assay: relative viability vs DMSO; higher = less cytotoxic; conditions: serum: 10% FBS, 72 h
621-102 (TSC2-deficient) = assay: as above; conditions: serum: 10% FBS, 72 h
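Further: immortalized renal angiomyolipoma cells stably carrying empty vector or TSC2, dosed in 384-well plates in DMEM, viability normalized to vehicle-treated wells within each plate.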

| Structure (SMILES) | relative viability (621-103 (TSC2-rescued); 0.0001 µM) [%] | relative viability (621-103 (TSC2-rescued); 0.001 µM) [%] | relative viability (621-103 (TSC2-rescued); 0.01 µM) [%] | relative viability (621-103 (TSC2-rescued); 0.1 µM) [%] | relative viability (621-103 (TSC2-rescued); 1 µM) [%] | relative viability (621-103 (TSC2-rescued); 10 µM) [%] | relative viability (621-102 (TSC2-deficient); 0.0001 µM) [%] | relative viability (621-102 (TSC2-deficient); 0.001 µM) [%] | relative viability (621-102 (TSC2-deficient); 0.01 µM) [%] | relative viability (621-102 (TSC2-deficient); 0.1 µM) [%] | relative viability (621-102 (TSC2-deficient); 1 µM) [%] | relative viability (621-102 (TSC2-deficient); 10 µM) [%] |
| --- | --- | --- | --- | --- | --- | --- | --- | --- | --- | --- | --- | --- |
| COC(=O)[C@H](c1ccccc1Cl)N1CCc2sccc2C1 [Clopidogrel Bisulfate] | 109.1 ± 0.85 | 108 ± 4.5 | 111 ± 4.1 | 103 ± 2 | 104.86 ± 0.079 | 102.2 ± 0.55 | 105 ± 1.4 | 102 ± 1.4 | 108.3 ± 0.95 | 105 ± 1.4 | 105 ± 4 | 99.8 ± 5.3 |
| Nc1cc(C(Cl)=C(Cl)Cl)c(S(N)(=O)=O)cc1S(N)(=O)=O [Clorsulon] | 81.5 ± 3.3 | 86.2 ± 4 | 73.8 ± 6.7 | 88.2 ± 12 | 91.8 ± 5.8 | 79.6 ± 10 | 109 ± 2.7 | 111.6 ± 0.7 | 107 ± 1.5 | 101 ± 2.9 | 98.4 ± 1.1 | 106 ± 1.2 |
| CN1CCN(C2=Nc3cc(Cl)ccc3Nc3ccccc32)CC1 [Clozapine] | 101.3 ± 0.79 | 113 ± 2.2 | 109 ± 1.1 | 105 ± 0.64 | 109 ± 0.24 | 92.73 ± 0.46 | 100 ± 1.7 | 108 ± 1.1 | 105.2 ± 0.32 | 104 ± 2.2 | 94.53 ± 0.49 | 98.1 ± 3.2 |
| CC1=C2C[C@H]3[C@@H](CC=C4C[C@@H](O)CC[C@@]43C)[C@@H]2CC[C@]12O[C@@H]1C[C@H](C)CN[C@H]1[C@H]2C [Cyclopamine] | 100 ± 1.7 | 101 ± 1.4 | 98.16 ± 0.86 | 100.3 ± 0.2 | 99.22 ± 0.46 | 98.9 ± 2.2 | 107 ± 4 | 95.64 ± 0.15 | 99.7 ± 0.74 | 103 ± 1.3 | 112.9 ± 0.35 | 95.49 ± 0.81 |
| N#CCNC(=O)c1ccc(-c2ccnc(Nc3ccc(N4CCOCC4)cc3)n2)cc1 [Cyt387] | 115 ± 0.87 | 105.2 ± 0.63 | 110 ± 1.1 | 110.2 ± 0.81 | 106 ± 3.2 | 83.38 ± 0.51 | 101 ± 5.9 | 109 ± 4.2 | 110 ± 1 | 113 ± 1.4 | 104 ± 0.75 | 73.3 ± 2.2 |
| Nc1ccn([C@@H]2O[C@H](CO)[C@@H](O)[C@@H]2O)c(=O)n1 [Cytarabine (Cytosar-U)] | 115 ± 4.8 | 106 ± 4.1 | 110 ± 0.82 | 105.2 ± 0.25 | 88.313 ± 0.062 | 38 ± 0.93 | 88.2 ± 4 | 93.49 ± 0.71 | 96.2 ± 2.2 | 89.35 ± 0.62 | 74.5 ± 2.8 | 49.4 ± 1.1 |
| C[C@H](NC(=O)Cc1cc(F)cc(F)c1)C(=O)N[C@H](C(=O)OC(C)(C)C)c1ccccc1 [DAPT (GSI-IX)] | 94.6 ± 6.5 | 105.2 ± 0.68 | 103.7 ± 0.49 | 101.4 ± 0.89 | 97.2 ± 2.8 | 98.2 ± 1.4 | 104 ± 4.3 | 99.1 ± 1.5 | 100 ± 2.3 | 97.82 ± 0.41 | 97.7 ± 4.1 | 97.1 ± 5.9 |
| C[C@]12CC[C@H](O)CC1=CC[C@@H]1[C@@H]2CC[C@]2(C)C(=O)CC[C@@H]12 [DHEA] | 73.1 ± 4.3 | 81.7 ± 1.7 | 80.2 ± 3.5 | 86.4 ± 7 | 79 ± 6 | 71.2 ± 8.4 | 105.05 ± 0.093 | 105 ± 1.6 | 99.6 ± 3.3 | 104 ± 2.9 | 97.2 ± 3.6 | 107 ± 1.8 |
| CC(C)(C)OC(=O)N[C@H]1CCCCC/C=C\[C@@H]2C[C@@]2(C(=O)NS(=O)(=O)C2CC2)NC(=O)[C@@H]2C[C@@H](OC(=O)N3Cc4cccc(F)c4C3)CN2C1=O [Danoprevir] | 100.3 ± 0.43 | 104.2 ± 0.88 | 101 ± 3.4 | 101.8 ± 0.53 | 98.14 ± 0.84 | 99.4 ± 1.5 | 105 ± 3.4 | 111 ± 3.4 | 113 ± 1.2 | 114 ± 3.5 | 97.9 ± 4.1 | 105.7 ± 0.94 |
| Cc1nc(Nc2ncc(C(=O)Nc3c(C)cccc3Cl)s2)cc(N2CCN(CCO)CC2)n1 [Dasatinib] | 92.9 ± 1.8 | 79 ± 2 | 74.3 ± 4.4 | 73.9 ± 5.5 | 61.2 ± 4.1 | 47.4 ± 2 | 71.7 ± 5.2 | 85.1 ± 7.2 | 70.7 ± 7.3 | 67.6 ± 4.7 | 67.5 ± 5.2 | 49.9 ± 2.6 |
| CN(C)CCOC(c1ccccc1)c1ccccc1 [Diphenhydramine HCl] | 89.4 ± 6.2 | 82.9 ± 10 | 106.2 ± 0.96 | 97.3 ± 2.9 | 97.6 ± 1.7 | 99.2 ± 1.8 | 105 ± 6 | 97.7 ± 7.7 | 99.9 ± 7.9 | 110 ± 1.5 | 91.1 ± 2.4 | 101 ± 4.7 |
| OCCN(CCO)c1nc(N2CCCCC2)c2nc(N(CCO)CCO)nc(N3CCCCC3)c2n1 [Dipyridamole] | 101 ± 2.4 | 103.1 ± 0.96 | 103 ± 2.1 | 104 ± 5.4 | 101 ± 6.3 | 101 ± 1.5 | 102 ± 3 | 98.3 ± 2.2 | 101.5 ± 1 | 95.2 ± 2.5 | 96.7 ± 2.7 | 93.4 ± 8.5 |
| CC(=O)O[C@@]12CO[C@@H]1C[C@H](O)[C@@]1(C)C(=O)[C@H](O)C3=C(C)[C@@H](OC(=O)[C@H](O)[C@@H](NC(=O)OC(C)(C)C)c4ccccc4)C[C@@](O)([C@@H](OC(=O)c4ccccc4)[C@H]21)C3(C)C [Docetaxel] | 57 ± 0.81 | 50.6 ± 1 | 42.9 ± 1.7 | 33.2 ± 0.49 | 35.55 ± 0.17 | 55.5 ± 2 | 36.3 ± 1.5 | 32.17 ± 0.058 | 33.5 ± 1.1 | 32.5 ± 0.43 | 31.8 ± 0.54 | 41.7 ± 1.1 |
| O=c1[nH]c2ccccc2n1CCCN1CCC(n2c(=O)[nH]c3cc(Cl)ccc32)CC1 [Domperidone (Motilium)] | 99.17 ± 0.87 | 93.61 ± 0.19 | 103.3 ± 0.16 | 110 ± 2 | 101.1 ± 0.98 | 96.7 ± 2 | 102.7 ± 0.59 | 96 ± 10 | 95.3 ± 3.6 | 106 ± 1.3 | 98.8 ± 1.5 | 90.8 ± 2.7 |
| COc1cc2c(cc1OC)C(=O)C(CC1CCN(Cc3ccccc3)CC1)C2 (stereo unspecified) [Donepezil HCl] | 93.1 ± 3 | 105 ± 2.5 | 102 ± 4.3 | 106 ± 1.8 | 104 ± 3.4 | 93.21 ± 0.93 | 96.2 ± 3.9 | 108 ± 4.1 | 103.6 ± 0.26 | 111 ± 1.3 | 101.6 ± 0.44 | 86.8 ± 1.3 |
| NCCc1ccc(O)c(O)c1 [Dopamine HCl] | 102.3 ± 0.35 | 99.6 ± 4.5 | 99 ± 1.9 | 100.1 ± 1 | 92.8 ± 2 | 95.4 ± 3.1 | 97.5 ± 9.6 | 112 ± 3.6 | 107 ± 3 | 105 ± 2.4 | 89.7 ± 7.8 | 74.1 ± 1.9 |
| CCN[C@H]1C[C@H](C)S(=O)(=O)c2sc(S(N)(=O)=O)cc21 [Dorzolamide HCl] | 99 ± 2.7 | 103 ± 3.2 | 103 ± 1.3 | 103 ± 1.4 | 102 ± 3.7 | 97.53 ± 0.19 | 98.73 ± 0.8 | 104.2 ± 0.95 | 108 ± 1.7 | 106.3 ± 0.82 | 96.9 ± 2.5 | 103 ± 3.9 |
| COc1cc2nc(N3CCN(C(=O)C4COc5ccccc5O4)CC3)nc(N)c2cc1OC (stereo unspecified) [Doxazosin mesylate] | 98.4 ± 1.8 | 95.8 ± 1.5 | 108 ± 2.6 | 101 ± 3.2 | 100.5 ± 0.52 | 88.314 ± 0.032 | 101 ± 0.75 | 99.06 ± 0.17 | 102.2 ± 0.51 | 100 ± 2.2 | 99.87 ± 0.89 | 95.9 ± 2.9 |
